pIC50: −log10 of the molar value.
Experiments:
Aβ42 [1] = experiment: γ-secretase-modulating activity, Method 2: Aβ42 Alphalisa in supernatant of SKNBE2 cells carrying APP 695-wild type (Table 3b); format: cell-based; conditions: overnight
Procedure, shortened: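 SKNBE2 cells expressing wild-type APP695 were incubated overnight at 37° C. with test compound. Secreted Aβ42 was then measured by AlphaLISA, using a C-terminal Aβ42 antibody paired with an N-terminal Aβ antibody. IC50 came from a 4-parameter fit of percent of compound-free control.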

Aβtotal [2] = experiment: γ-secretase-modulating activity, Method 2: Aβtotal Alphalisa in supernatant of SKNBE2 cells carrying APP 695-wild type (Table 3b); format: cell-based; conditions: overnight, read-out: IC50 Aβtot
Procedure, shortened: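 SKNBE2 cells expressing wild-type APP 695 were incubated overnight at 37 °C, 5% CO2 with test compound at a range of concentrations. Aβtotal in supernatant was measured by AlphaLISA sandwich (N-terminal JRF/AβN/25 acceptor, biotinylated mid-region 4G8 donor); IC50 from 4-parameter fit of percent control versus log concentration.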

Aβ42 [3] = experiment: In vivo efficacy, Method 2: brain soluble Aβ42 lowering 4 h after a single oral dose, ELISA (Table 4b); design: species or system mouse; conditions: dose 30 mg/kg oral dosing
From the text: (§1) To determine whether acute administration of an Aβ42 lowering agent would reduce Aβ42 levels in vivo, non-transgenic rodents, e.g. mice or rats were used. Animals treated with the Aβ42 lowering agent were examined and compared to those untreated or treated with vehicle and brain levels of soluble Aβ42 and total Aβ were quantitated by standard techniques, for example, using ELISA. Treatment periods varied from hours (h) to days and were adjusted based on the results of the Aβ42 lowering once a time course of onset of effect could be established.
(§2) A typical protocol for measuring Aβ42 lowering in vivo is shown but it is only one of many variations that could be used to optimize the levels of detectable Aβ. For example, Aβ42 lowering compounds were formulated in 20% of Captisol® (a sulfobutyl ether of β-cyclodextrin) in water or 20% hydroxypropyl β cyclodextrin. The Aβ42 lowering agents were administered as a single oral dose or by any acceptable route of administration to overnight fasted animals. After 4 h, the animals were sacrificed and Aβ42 levels were analysed.
(§3) Blood was collected by decapitation and exsanguinations in EDTA-treated collection tubes. Blood was centrifuged at 1900 g for 10 minutes (min) at 4° C. and the plasma recovered and flash frozen for later analysis. The brain was removed from the cranium and hindbrain. The cerebellum was removed and the left and right hemisphere were separated. The left hemisphere was stored at −18° C. for quantitative analysis of test compound levels. The right hemisphere was rinsed with phosphate-buffered saline (PBS) buffer and immediately frozen on dry ice and stored at −80° C. until homogenization for biochemical assays.
(§4) Mouse brains from non-transgenic animals were resuspended in 8 volumes of 0.4% DEA (diethylamine)/50 mM NaCl containing protease inhibitors (Roche-11873580001 or 04693159001) per gram of tissue, e.g. for 0.158 g brain, add 1.264 ml of 0.4% DEA. All samples were homogenized in the FastPrep-24 system (MP Biomedicals) using lysing matrix D (MPBio #6913-100) at 6 m/s for 20 seconds. Homogenates were centrifuged at 221.300×g for 50 min. The resulting high speed supernatants were then transferred to fresh eppendorf tubes. Nine parts of supernatant were neutralized with 1 part 0.5 M Tris-HCl pH 6.8 and used to quantify Aβtotal and Aβ42.
(§5) To quantify the amount of Aβtotal and Aβ42 in the soluble fraction of the brain homogenates, Enzyme-Linked-Immunosorbent-Assays were used. Briefly, the standards (a dilution of synthetic Aβ1-40 and Aβ1-42, Bachem) were prepared in 1.5 ml Eppendorf tube in Ultraculture, with final concentrations ranging from 10000 to 0.3 pg/ml. The samples and standards were co-incubated with HRPO-labelled N-terminal antibody for Aβ42 detection and with the biotinylated mid-domain antibody 4G8 for Aβtotal detection. 50 μl of conjugate/sample or conjugate/standards mixtures were then added to the antibody-coated plate (the capture antibodies selectively recognize the C-terminal end of Aβ42, antibody JRF/cAβ42/26, for Aβ42 detection and the N-terminus of Aβ, antibody JRF/rAβ/2, for Aβtotal detection). The plate was allowed to incubate overnight at 4° C. in order to allow formation of the antibody-amyloid complex. Following this incubation and subsequent wash steps the ELISA for Aβ42 quantification was finished by addition of Quanta Blu fluorogenic peroxidase substrate according to the manufacturer's instructions (Pierce Corp., Rockford, Ill.). A reading was performed after 10 to 15 min (excitation 320/emission 420).
In this model at least 20% Aβ42 lowering compared to untreated animals would be advantageous.
(§6) The results are shown in Table 4b (dose 30 mg/kg oral dosing): […]

Aβtotal [4] = experiment: In vivo efficacy, Method 2: brain soluble Aβtotal lowering 4 h after a single oral dose, ELISA (Table 4b); design: species or system mouse; conditions: dose 30 mg/kg oral dosing
From the text: as §1, §2, §3, §4, §5
For Aβtotal detection, a Streptavidine-Peroxidase-Conjugate was added, followed 60 min later by an additional wash step and addition of Quanta Blu fluorogenic peroxidase substrate according to the manufacturer's instructions (Pierce Corp., Rockford, Ill.). A reading was performed after 10 to 15 min (excitation 320 nm/emission 420 nm).
as §6

Compound	pIC50 (Aβ42 [1])	pIC50 (Aβtotal [2])	Aβ42 (% Ctrl) _Mean (Aβ42 [3]) [% Ctrl]	Aβtotal (% Ctrl) _Mean (Aβtotal [4]) [% Ctrl]
COc1nc(-c2nc(N3CCCC(c4ccccc4)C3)n(C(C)C)n2)ccc1-n1cnc(C)c1.Cl (racemic) [Compound 80]	7.25	5.00	−20	−19
COc1cc(-c2nc(Nc3cc([S+](C)[O-])ccc3F)n(C)n2)ccc1-n1cnc(C)c1 (racemic) [Compound 330]	6.22	7.17	−9	−2
COc1cc(-c2nc(Nc3ccccc3C(C)C)n(C)n2)ccc1-n1cnc(C)c1 [Compound 99]	7.72	< 5.00	58	−2
COc1nc(-c2nc(Nc3cccc(Cl)c3)n(C)n2)ccc1-n1cnc(C)c1 [Compound 100]	7.55	< 5.00	12	−4
COc1cc(-c2nc(Nc3ccccc3F)n(C)n2)ccc1-n1cnc(C)c1 [Compound 105]	6.88	< 5.00	24	−7
COc1cc(-c2nc(Nc3cc(Cl)ccc3Cl)n(C)n2)ccc1-n1cnc(C)c1 [Compound 111]	7.89	< 5.00	33	15
COc1cc(-c2nc(Nc3cccc(F)c3Cl)n(C)n2)ccc1-n1cnc(C)c1 [Compound 114]	7.25	< 5.00	53	9
COc1nc(-c2nc(Nc3cc(Cl)ccc3F)n(C)n2)ccc1-n1cnc(C)c1 [Compound 117]	7.22	< 5.00	44	17
COc1cc(-c2nc(Nc3cc(Cl)ccc3F)n(C)n2)ccc1-n1cnc(C)c1 [Compound 123]	7.24	< 5.00	36	31
COc1cc(-c2nc(Nc3c(F)cccc3Cl)n(C)n2)ccc1-n1cnc(C)c1 [Compound 125]	7.07	< 5.00	2	11
COc1cc(-c2nc3n(n2)CCOC3c2cc(OC(F)(F)F)ccc2F)ccc1-n1cnc(C)c1 (stereo not drawn) [Compound 128]	7.55	< 5.00	47	24
COc1cc(-c2nc(Nc3cccc(Cl)c3C)n(C)n2)ccc1-n1cnc(C)c1 [Compound 129]	7.60	< 5.00	56	9
COc1nc(-c2nc(Nc3ccccc3C(F)(F)F)n(C)n2)ccc1-n1cnc(C)c1 [Compound 132]	6.87	< 5.00	39	−1
COc1cc(-c2nc(Nc3cc(C(F)(F)F)ccc3F)n(CC(C)(C)O)n2)ccc1-n1cnc(C)c1 [Compound 136]	7.12	5.52	−14	1
COc1nc(-c2nc(Nc3cccc(F)c3C(F)(F)F)n(C)n2)ccc1-n1cnc(C)c1 [Compound 138]	7.30	< 5.00	46	17
COc1cc(-c2nc(Nc3cc(C(F)(F)F)cc(F)c3F)n(C)n2)ccc1-n1cnc(C)c1 [Compound 140]	7.70	< 5.00	33	8
COc1cc(-c2nc(Nc3cc(C(F)(F)F)ccc3C(F)(F)F)n(C)n2)ccc1-n1cnc(C)c1 [Compound 144]	8.05	< 5.00	38	9
COc1cc(-c2nc(Nc3cccc(C(F)(F)F)c3F)n(C)n2)ccc1-n1cnc(C)c1 [Compound 148]	7.64	< 5.00	37	12
